Measured values as given in patent EP2601945A1 (Thomale, Jürgen, priority 2011, dated 2013).
Entries after “also recorded” stand apart in the source; their conditions may differ.

Experiments:
[1] = test system: outer hair cells and stria vascularis marginal cells; experiment: Electron microscopy of cochlear cell micromorphology; type: in vivo, mice; settings: four times
[2] = test system: Pt-GG adducts in DNA of lung tumor cells; experiment: ICA of Pt-GG adducts in primary lung tumor cells; type: in vivo, mice
Description: (§1) Oncogenic mutations in the gene encoding the small GTPase K-ras are among the most frequently detected alterations in human lung cancer and approximately 30 % of all cases of human non-small cell lung cancer (NSCLC) carry such an activated K-ras allele with mutations predominantly located in codons 12, 13 or 61. Based on this observation a mouse model for NSCLC was recently established (Sweet-Cordero et al., 2004). The local activation of a silent transgenic K-rasG12D allele in these mice is achieved by intratracheal adenoviral transfection with the Cre recombinase (AdCre). The Cre recombinase cuts out a "stop" cassette and allows for expression of the oncogenic K-ras protein in transfected lung cells. When the initiation is performed at the age of 8 weeks, mice are diagnosed 16 weeks later with lung tumors at 100 % penetrance. The morphology and molecular characteristics of the tumors are very similar to human NSCLC and they respond with regression to chemotherapy with cis-platin.
Mice bearing K-rasG12D -induced lung tumors were divided into two groups for acute high dose and for chronic low dose treatment. Animals received mocktreatment with PBS or cis-platin alone or cis-platin plus treatment with DPH. […] All mice were sacrificed 24 hours after the last treatment and cochleae, kidneys and lungs were resected for analysis of DNA adduct accumulation.

hearing capability = experiment: BAER hearing test after repetitive cis-platin with or without DPH, or DPH alone
Description: Both groups received additional i.p. injections with saline solution (500 µl) in order to protect the mice from kidney injury. […] Like in the clinical BAER tests for humans, the hearing threshold was determined as the disappearance of wave V. This value was converted into percentage of hearing capability as compared to the untreated controls (dB to %). […] The mean value of the untreated mice was set as 100 %.

[3] = test system: K-rasG12D -induced lung tumors; experiment: Tumor growth in the K-ras mouse model of NSCLC (H&E lung sections, Bioquant image analysis); type: in vivo, mice; settings: for tumor number: not statistically significant
Description: as §1, with “cells.” for “cells. When the initiation is performed at the age of 8 weeks, mice are diagnosed 16 weeks later with lung tumors at 100 % penetrance. The morphology and molecular characteristics of the tumors are very similar to human NSCLC and they respond with regression to chemotherapy with cis-platin.”
A cohort of tumor-bearing mice was randomly divided into three subgroups receiving different treatment regimens. Group one (mock treatment control) received i.p. injections once per week with PBS for 4 weeks. […] Mice were sacrificed 5 days after the last dose; lungs were dissected and prepared for paraffin sections. Following H&E staining for morphological structures, the percentage tumor burden, the number of tumors per lung and the average tumor size was determined microscopically (Figure 13 B-D, 14). […] For quantitative analysis the Bioquant image analysis software was used to blindly and randomly quantify the area of all lung tumors and the total lung surface area in 4 lung sections per mouse.

[4] = cis-platin 7 mg/kg once per week for 4 weeks, DPH 57 mg/kg
[5] = cis-platin in combination with DPH (57 mg/kg 30 minutes before each dose)
[6] = cis-platin alone (7 mg/kg once per week for 4 weeks)

Row | Compound | micromorphology of outer hair cells and marginal cells ([1]; DPH alone 57 mg/kg every second day) | micromorphology of outer hair cells and marginal cells ([1]; cis-platin 5 mg/kg plus DPH 57 mg/kg every second day) | reduction of Pt-GG levels in lung tumor cells by DPH co-treatment ([2]; DPH 57 mg/kg 30 minutes prior to cis-platin, acute 10 mg/kg or chronic 4 x 5 mg/kg) | hearing ability throughout the experiment (hearing capability; DPH alone 57 mg/kg repetitively, no cis-platin) | hearing sensitivity 24 hours later (hearing capability; DPH alone, single dose 57 mg/kg, BAER repeated 24 hours later) | hearing loss (hearing capability; cis-platin cumulated dose 20 mg/kg in combination with DPH 57 mg/kg 30 minutes before each dose) | mean hearing capability, percentage of untreated controls (hearing capability; cis-platin cumulated dose 40 mg/kg plus DPH 57 mg/kg before each dose) | average tumor size, cis-platin alone versus cis-platin plus inhibitor group [3, 4] | mean tumor burden in the lung, cis-platin alone versus in combination with DPH [3, 4] | reduction of average tumor size [3, 5] | reduction of tumor burden [3, 5] | tumor number ([3]; cis-platin plus DPH versus PBS) | micromorphology of outer hair cells and marginal cells ([1]; cis-platin alone 5 mg/kg every second day) | adduct levels in lung tumor cells, repetitive treatment compared to single high dose treatment ([2]; cis-platin 4 x 5 mg/kg every second day versus 10 mg/kg once) | hearing capability, percentage of controls (hearing capability; cis-platin alone 5 mg/kg every second day, cumulated dose 20 mg/kg, BAER 24 h after last treatment) | reduction of hearing capacity (BAER) (hearing capability; cis-platin treatment alone, mice (description)) | reduction of average tumor size [3, 6] | reduction of tumor burden [3, 6] | tumor number ([3]; cis-platin alone versus PBS)
1 | CN(C)CCOC(c1ccccc1)c1ccccc1 [DPH, diphenhydramine] | No signs of autophagy or necrosis | much less frequent and properly shaped; also recorded: rare autophagosome-like structures | no reduction | did not show any difference | regained their normal hearing sensitivity | 20% | about 70% | no difference | no significant difference | about 50% | about 80% | reduced | – | – | – | – | – | – | –
2 | N.N.[Cl][Pt][Cl] [cis-platin, cis-diaminedichloro-platinum(II)] | – | – | – | – | – | – | – | – | – | – | – | – | necrotic cell death | about two-fold higher | about 50% | about 45% | about 50% | about 80% | reduced
